Like-named read-outs stand apart in the source and are kept apart here.
Key:
HIV-1/Ba-L [1] = assay: Various procedures for treating monocyte-derived macrophages (before/after infection, maintained or not); type: cell-based; conditions: Human immunodeficiency virus 1, BAL, Macrophage, triplicate, read-out: percentage of inhibition (I) of the viral replication
Procedure: Various procedures for treating monocyte-derived macrophages with the piperazine derivatives in accordance with the invention were tested using a protocol similar to that described in Example 14.
In these tests, however, the macrophage cultures were divided into three groups:
a first group (group 1 below) in which the macrophages were treated with the piperazine derivatives 24 hours before being infected with HIV (i.e. on D3) and the treatment was maintained up to D28, as described in Example 14,
a second group (group 2 below) in which the macrophages were treated 24 hours after having been infected with HIV (i.e. on D5) and the treatment was maintained up to D28, and
a third group (group 3 below) in which the macrophages were treated 24 hours before being infected with HIV (i.e. on D3), but the treatment was not subsequently maintained.
In all cases, the piperazine derivatives were used at a dose of 100 μM and the tests were carried out in triplicate.

HIV-1/Ba-L [2] = assay: Inhibition of HIV replication in monocyte-derived macrophages (reverse transcriptase activity in culture supernatants); type: cell-based; conditions: dose-effect curve FIG. 1
Description: a) Production and Culturing of the Macrophages
The macrophages were obtained by differentiation of monocytes which were themselves isolated from peripheral blood mononuclear cells.
To do this, the peripheral blood mononuclear cells were separated from the other elements of the blood by centrifugation on a ficoll gradient (MSL 2000, from Eurobio) and washed twice in RPMI 1640 medium (from Boehringer Mannheim). The monocytes were isolated from these mononuclear cells by counter-current elutriation. The fractions collected were analyzed using a cell counter-analyzer (from Coulter) and the cells corresponding to each fraction were phenotyped and then analyzed using a flow cytometer (FACS, from Becton Dickinson). The purity of the monocytes thus collected is at least equal to 95%.
These monocytes were then suspended in a culture medium (medium A below) comprising RPMI 1640 medium (from Boehringer Mannheim) supplemented with 10% fetal calf serum (from Boehringer Mannheim) decomplemented beforehand by treatment at 56° C. for 30 minutes, L-glutamine (2 mM) and a solution containing 100 μg/ml of 3 antibiotics: penicillin, streptomycin and neomycin (PSN, from Life Technologies), at a rate of 1 million monocytes per ml of culture medium. […]

[3] = tested on: monocyte-derived macrophages; assay: Cytotoxicity: neutral red viability test on monocyte-derived macrophage cultures; type: cell-based; conditions: 100 μM, FIG. 3
Procedure: The cytotoxicity of the piperazine derivatives in accordance with the invention was evaluated by measuring, by means of three different tests:
a test with neutral red, the viability of peripheral blood mononuclear cell cultures and of monocyte-derived macrophage cultures treated with the piperazine derivatives in accordance with the invention and by comparing the results obtained with those observed for “control” cultures, i.e. peripheral blood mononuclear cell cultures or monocyte-derived macrophage cultures prepared under the same conditions but in the absence of any treatment with said piperazine derivatives.
The neutral red test is also a test which is used on adherent cells and which was used to measure the effects of the piperazine derivatives in accordance with the invention on the monocyte-derived macrophages. […]
In all cases, the viability of the peripheral blood mononuclear cells and of the monocyte-derived macrophages was measured before culturing them, and then at each renewal of the culture media.

Row | Structure (SMILES) | melting point | inhibition at 100 µM (HIV-1/Ba-L [1]; 24 h, Group 2: treated 24 hours after infection (D5), maintained up to D28, average ± standard deviation) | inhibition at 100 µM (HIV-1/Ba-L [1]; Group 1: treated 24 hours before infection (D3), maintained up to D28, average ± standard deviation) | inhibition at 100 µM (HIV-1/Ba-L [1]; Group 3: treated 24 hours before infection (D3), treatment not maintained, average ± standard deviation) | doses at which inhibitory activity on HIV replication is shown (HIV-1/Ba-L [2]) | viability of monocyte-derived macrophage cultures versus control cultures (number of live cells) [3]
1 | CCN(CC)C(=O)OCC1CN(C(=S)c2cc(OC)c(OC)c(OC)c2)CCN1C(=O)c1cc(OC)c(OC)c(OC)c1 (stereo not shown) | 105.8 °C |  |  |  |  | 
2 | CCN(CC)C(=O)OCC1CN(C(=O)c2cc(OC)c(OC)c(OC)c2)CCN1C(=O)c1cc(OC)c(OC)c(OC)c1 (stereo not shown) [Example 2, 1,4-bis(3′,4′,5′-trimethoxybenzoyl)-2-(N,N-diethylaminocarbonyloxymethyl)piperazine] |  | 88 ± 12% | 91 ± 2% | 73 ± 2% | above 1 μM | no significant difference
3 | CCN(CC)C(=O)OCC1CN(C(=O)c2cc(OC)c(OC)c(OC)c2)CCN1Cc1ccccc1.Cl (stereo not shown) [Example 8, 1-benzyl-4-(3′,4′,5′-trimethoxybenzoyl)-2-(N,N-diethylaminocarbonyloxymethyl)piperazine hydrochloride] | 134 °C |  |  |  |  | 

Source: patent US6531476B1, “Piperazine derivatives inhibiting human immunodeficiency virus replication” (Universite Paris 7 - Denis Diderot, priority 1998, dated 2003)
